Laboratory results published in BindingDB's records for patent US20240083888 (Reistone Biopharma Company, 2024).

Target: Dipeptidyl peptidase 1 (Homo sapiens, UniProt P53634)
Experiment: In Vitro Inhibitory Assay
Method: The compound was diluted with DMSO to a 384-well echo plate at a concentration of 100× of the highest concentration at the beginning of the experiment. 0.2 μL of the diluted compound was pipetted to a black-bottomed 384-well reaction plate for later use. […] The solution was added to the black-bottom 384-well reaction plate ([…]). 10 μL of the buffer was added for the vehicle control group. The plate containing compounds in its wells was incubated at room temperature for 30 minutes.

Dipeptidyl peptidase 1, sequence (P53634 25-134 limits assumed): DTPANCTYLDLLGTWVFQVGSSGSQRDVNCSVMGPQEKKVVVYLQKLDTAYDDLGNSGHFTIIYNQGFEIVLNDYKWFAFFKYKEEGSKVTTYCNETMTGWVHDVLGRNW
Dipeptidyl peptidase 1, sequence (P53634 231-394 limits assumed): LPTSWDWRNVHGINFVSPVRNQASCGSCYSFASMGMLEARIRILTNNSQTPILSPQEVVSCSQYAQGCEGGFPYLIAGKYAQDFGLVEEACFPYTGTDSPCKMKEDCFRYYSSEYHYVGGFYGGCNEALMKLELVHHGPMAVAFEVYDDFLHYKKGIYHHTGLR
Dipeptidyl peptidase 1, sequence (P53634 395-463 limits assumed): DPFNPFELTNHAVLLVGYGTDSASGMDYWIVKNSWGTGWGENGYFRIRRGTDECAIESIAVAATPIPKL

N#C[C@H](Cc1ccc2c(c1)CC(=O)N(c1ccc(F)cc1)C2)NC(=O)C1(N)CCCCC1 [US20240083888, Compound 58]
IC50: 17 nM
